Experimental data taken from US20090298938A1, “USE OF SEMI SYNTHETIC ANALOGUES OF BOSWELLIC ACIDS FOR ANTICANCER ACTIVITY” (COUNCIL OF SCIENTIFIC & INDUSTRIAL RESEARCH, priority 2008, published 2009).

How the values were obtained:
Format in all cases: cell-based, human
[1] = test system: HL-60 cells; assay: Apoptosis induction, annexin V-FITC/PI flow cytometry; settings: HL-60, 15 μM, 6 hr
Protocol: FIG. 2. Comparative efficacy of apoptosis induction: Measurement by flow cytometry. The effects of boswellic acid on the relative efficiency of induction of apoptosis and necrosis in HL-60 cells were analyzed by flow cytometry. Cells were incubated with each analog for 6 hrs and stained with annexin V-FITC labeled. The dot plots are representative of one of the two separate experiments. Values in the lower right quadrant represent the apoptotic population in the UR as post-apoptotic and in the UL as necrotic. Where a=compound of formula 1, R3=COCH2CH2CH3, […], R4=[…], b=compound of formula 1, R3=COCH2CH3R1=H, R4=[…], c=compound of formula 1, R3=COCH2CH2CH3, […], R4+R5=O, d=compound of formula 1, […], R3=COCH2CH3, R4=[…], e=compound of formula 1, R3=COCH2CH2CH3, […], R4=[…], f=β-boswellic acid. Compounds of formula 1 where […], R3=COCH2CH3R3=[…]; R3=COCH2CH2CH3, […], R4=[…] and natural β-boswellic acid produced low level of apoptotic cell population (approx. 10%) compared to compound of formula 1 where R3=COCH2CH2CH3, […], R4=[…] (17%), […], R3=COCH2CH3, R4=[…] (30%) and where R3=COCH2CH2CH3, […], R4+R5=O (23%), although the combined apoptotic and post-apoptotic population was about 32% with the last three analogs. Confirmation that boswellic acid analogs are potent inducers of apoptosis may also be obtained from DNA fragmentation assay. During the early events of apoptosis, phospholipid phosphatidyl serine of plasma membrane is externalized, which has very high affinity for annexinV antibody. Effect of a single concentration (15 μM) of each boswellic acid analogs on the relative efficiency of induction of apoptosis and necrosis in HL-60 cells was analyzed by flow cytometry. Cells were incubated with each analog for 6 hr and stained with Annexin V-FITC/PI. Camptothecin at 4 μM was used as positive control. There after, cells were washed and stained with FITC conjugated annexinV antibody and propidium iodide. The cells (10,000) were analysed by flow cytometery (BD, LSR) using ProQuest software.

[2] = test system: HL-60 cells; assay: Reduced glutathione content, fluorimetric; settings: HL-60, 6 hr
Protocol: FIG. 7. Modulation of reduced glutathione contents in HL-60 cells by boswellic acid analogs. GSH content was measured in HL-60 cells as described in the Examples section, using treated and untreated groups of about 3×10^6 cells per well and 3 mL of RPMI media. Cells were treated with buthionine sulfoxime (BSO), N-acetyl cysteine (NAC), a compound designated “c” (formula 1 compound wherein R3=COCH2CH2CH3, […] and R4+R5=O), and NAC+the compound “c”. Treatment concentrations were as indicated. […] The depleted GSH stores were restored by an anti-oxidant n-acetyl cysteine. Depletion of GSH content is an important indicator of predisposition conditions leading to cellular injury. Loss of mitochondrial functions as a result of GSH depletion may affect the energy status of the cells and therefore, is critical event in the induction of cell injury. GSH in general offers protection by scavenging reactive oxygen species and electrophiles formed within the cells. The GSH content of cells recovered back to normal or NAC control when cells were treated with sulfhydral groups antioxidant, N-acetyl cysteine (NAC). […] Reduced glutathione content was determined in 3×10^6 HL-60 cells/well/3 mL medium in a 6-well plate after incubation with SS-145 for 6 hr. Cells were washed and the reduced glutathione contents were extracted and determined using a standard fluorimetric method [[…] et al., 1976]. […]

[3] = test system: caspase-3 in HL-60 cells; assay: Caspase-3 activation, colorimetric, HL-60
Protocol: (§1) FIGS. 8A-8B. Caspase activation in HL-60 cells by boswellic acid analogs. FIG. 8A depicts the results of a colorimetric evaluation of caspase-3 activation in HL-60 cells and Molt-4 cells. Cells were treated with a compound designated “c” (formula 1 compound wherein R3=COCH2CH2CH3, […] and R4+R5=O) at concentrations indicated for 6 hours. Caspase-3 inhibitor (DEVD-fmk) was added 30 min prior to the addition of caspase-3 substrate (DEVD-pNA) to the lysate. Data are mean of triplicate determinations with coefficients of variation less than 10%. […] Caspase-9 inhibitor LEHD-CHO was added 30 min prior to the addition of caspase-9 substrate to validate the specificity of caspase-9. Caspase-9 activity was measured fluorometrically. Data are a mean of triplicate determinations with a coefficient of variation of less than 10%. Caspases are important cysteine-proteases that are involved in the cleavage of DNA specifically producing 180 bp DNA fragments. The enzymes act through different signaling pathways. […] Caspase-9 activity was determined fluorometrically and caspase-3 colorimetrically using kits and the instruction provided by the manufacturer (BD pharmingen, USA). Caspase-3 activity was determined in both Molt-4 and HL-60 leukemia cells while caspase-9 was determined in HL-60 cells.

[4] = test system: caspase-3 in Molt-4 cells; assay: Caspase-3 activation, colorimetric, Molt-4; settings: 6 hr
Protocol: as §1

[5] = test system: caspase-9 in HL-60 cells; assay: Caspase-9 activation, fluorometric, HL-60; settings: HL-60, 50 μM, 6 hours
Protocol: as §1

## CCCC(=O)OC1CCC2(C)C(CCC3(C)C2C(=O)C=C2C4C(C)C(C)CCC4(C)CCC23C)C1(C)C(=O)O (stereo not shown) [R3=COCH2CH2CH3, R1=H, R4+R5=O]
[1]
  apoptotic cell population: 23%
  combined apoptotic and post-apoptotic population: about 32%
[2]
  reduced glutathione (GSH) content: strongly depleted GSH content
[3]; 50 μM
  caspase-3 stimulation: about 50%
[3]; HL-60 cells, 6 hr
  caspase-3 activation: about 50%
[4]
  caspase-3 activation: about 50%
[5]
  caspase-9 activity stimulation: 4-5 fold
